Laboratory results as given in ChEMBL document CHEMBL3425445, “Synthesis, crystal structure and biological evaluation of substituted quinazolinone benzoates as novel antituberculosis agents targeting acetohydroxyacid synthase” (Eur J Med Chem, 2015).
pIC50: −log10 of the molar value. ≈ marks a conversion by molar mass, not a printed value.

What was measured:
[1] = Inhibition of Mycobacterium tuberculosis AHAS catalytic subunit assessed as inhibition of acetoin formation using […] as substrate after 1 hr
[2] = tested on: Mycobacterium tuberculosis; assay: Inhibition of Mycobacterium tuberculosis AHAS catalytic subunit assessed as inhibition of acetoin formation using […] as substrate at 100 uM after 1 hr
[3] = tested on: Mycobacterium tuberculosis; assay: Antitubercular activity against Mycobacterium tuberculosis H37Rv ATCC 27294 assessed as inhibition of bacterial growth after 4 weeks by two-fold dilution technique; assay type: functional; conditions: H37Rv ATCC 27294, 672 h
[4] = tested on: Mycobacterium tuberculosis; assay: Antitubercular activity against isoniazid, rifampin, streptomycin, ethambutol, amikacin, ofloxacin, kanamycin-susceptible Mycobacterium tuberculosis assessed as inhibition of bacterial growth after 4 weeks by two-fold dilution technique; assay type: functional; conditions: 672 h
[5] = tested on: Mycobacterium tuberculosis; assay: Antitubercular activity against Mycobacterium tuberculosis H37Rv ATCC 27294 infected in human THP-1 cells assessed as inhibition of intracellular activity at 20 mg/L after 4 days; assay type: functional; conditions: H37Rv ATCC 27294, THP-1, 96 h
[6] = tested on: Mycobacterium tuberculosis; assay: Antitubercular activity against isoniazid, rifampin, streptomycin, ethambutol, amikacin, ofloxacin, kanamycin-susceptible Mycobacterium tuberculosis infected in human THP-1 cells assessed as inhibition of intracellular activity at 10 mg/L after 4 days; assay type: functional; conditions: THP-1, 96 h
THP-1 = assay: Cytotoxicity against human THP1 cells at 20 mg/L by MTT assay; assay type: cell-based
[7] = tested on: Mycobacterium tuberculosis; assay: Antitubercular activity against isoniazid, rifampin, streptomycin, ethambutol, amikacin, ofloxacin, kanamycin-susceptible Mycobacterium tuberculosis infected in human THP-1 cells assessed as inhibition of intracellular activity at 20 mg/L after 4 days; assay type: functional; conditions: THP-1, 96 h
[8] = tested on: Mycobacterium tuberculosis; assay: Antitubercular activity against Mycobacterium tuberculosis H37Rv ATCC 27294 infected in human THP-1 cells assessed as inhibition of intracellular activity at 10 mg/L after 4 days; assay type: functional; conditions: H37Rv ATCC 27294, THP-1, 96 h

Structure (SMILES) | pIC50 [1] | inhibition [2] [%] | MIC [3] [µg/mL] | MIC [4] [µg/mL] | inhibition at 20 µg/mL [5] [%] | inhibition at 10 µg/mL [6] [%] | Activity (THP-1) | inhibition at 20 µg/mL [7] [%] | inhibition at 10 µg/mL [8] [%]
O=C(On1c(-c2cccc(F)c2)nc2ccccc2c1=O)c1cccc(C(F)(F)F)c1 | < 4.00 | 30 | > 50 |  |  |  |  |  | 
Cc1cccc(C(=O)On2c(-c3ccccc3)nc3ccccc3c2=O)c1 | < 4.00 | 4 | > 50 |  |  |  |  |  | 
O=C(On1c(-c2ccccc2)nc2ccccc2c1=O)c1cccc([N+](=O)[O-])c1 | 5.01 | 91.5 | 5 (≈ 12.9 µM) | 5 (≈ 12.9 µM) |  |  |  |  | 
CO[C@H]1/C=C/O[C@@]2(C)Oc3c(C)c(O)c4c(O)c(c(/C=N/N5CCN(C)CC5)c(O)c4c3C2=O)NC(=O)/C(C)=C\C=C\[C@H](C)[C@H](O)[C@@H](C)[C@@H](O)[C@@H](C)[C@H](OC(C)=O)[C@@H]1C [RIFAMPIN] |  |  |  | 0.4 (≈ 0.486 µM) |  |  |  |  | 
Cc1ccccc1-c1nc2ccccc2c(=O)n1OC(=O)c1cccc(F)c1 | < 4.00 | 30 | > 50 |  |  |  |  |  | 
COc1cccc(C(=O)On2c(-c3cccc(F)c3)nc3ccccc3c2=O)c1 | < 4.00 | 28 | 50 (≈ 128 µM) |  |  |  |  |  | 
O=C(On1c(-c2cccc(F)c2)nc2ccccc2c1=O)c1cccc(F)c1 | 5.19 | 72 | 2.5 (≈ 6.61 µM) | 2.5 (≈ 6.61 µM) | 49.5 | 23.4 | Non-toxic | 48.2 | 24.8
O=C(On1c(-c2ccccc2)nc2ccccc2c1=O)c1cccc(F)c1 | < 4.00 | 26 | > 50 |  |  |  |  |  | 
O=C(On1c(-c2ccccc2)nc2ccccc2c1=O)c1ccccc1 | < 4.00 | 20.5 | > 50 |  |  |  |  |  | 
Cc1ccccc1C(=O)On1c(-c2ccccc2)nc2ccccc2c1=O | < 4.00 | 16.5 | > 50 |  |  |  |  |  | 
COc1cccc(-c2nc3ccccc3c(=O)n2OC(=O)c2cccc(Cl)c2)c1 | < 4.00 | 23.5 | > 50 |  |  |  |  |  | 
COc1cccc(C(=O)On2c(-c3ccccc3)nc3ccccc3c2=O)c1 | < 4.00 | 27 | > 50 |  |  |  |  |  | 
Cc1cccc(-c2nc3ccccc3c(=O)n2OC(=O)c2cccc(F)c2)c1 | < 4.00 | 9.5 | > 50 |  |  |  |  |  | 
Cc1cccc(C(=O)On2c(-c3cccc(C)c3)nc3ccccc3c2=O)c1 | < 4.00 | 10.5 | > 50 |  |  |  |  |  | 
Cc1cccc(-c2nc3ccccc3c(=O)n2OC(=O)c2ccc(Cl)cc2)c1 | < 4.00 | 0 | > 50 |  |  |  |  |  | 
Cc1cccc(-c2nc3ccccc3c(=O)n2OC(=O)c2ccccc2)c1 | < 4.00 | 40.5 | > 50 |  |  |  |  |  | 
Cc1ccc(C(=O)On2c(-c3ccccc3)nc3ccccc3c2=O)cc1 | < 4.00 | 18 | > 50 |  |  |  |  |  | 
O=C(On1c(-c2ccccc2)nc2ccccc2c1=O)c1ccc(Cl)cc1 | < 4.00 | 7.5 | > 50 |  |  |  |  |  | 
COc1cccc(-c2nc3ccccc3c(=O)n2OC(=O)c2cccc([N+](=O)[O-])c2)c1 | 5.06 | 94 | 5 (≈ 12 µM) | 5 (≈ 12 µM) |  |  |  |  | 
COC(=O)c1ccccc1S(=O)(=O)NC(=O)Nc1nc(C)cc(C)n1 [SULFOMETURON METHYL] | 5.32 |  | 10 (≈ 27.4 µM) | 10 (≈ 27.4 µM) | 32.5 | 15.5 |  | 32.3 | 15.9
O=C(On1c(-c2ccccc2)nc2ccccc2c1=O)c1cccc(Cl)c1 | 4.92 | 80.5 | 5 (≈ 13.3 µM) | 5 (≈ 13.3 µM) |  |  |  |  | 
Cc1ccc(C(=O)On2c(-c3cccc(C)c3)nc3ccccc3c2=O)cc1 | < 4.00 | 33 | > 50 |  |  |  |  |  | 
COc1cccc(-c2nc3ccccc3c(=O)n2OC(=O)c2cccc(C(F)(F)F)c2)c1 | 5.02 | 73.2 | 10 (≈ 22.7 µM) | 10 (≈ 22.7 µM) |  |  |  |  | 
O=C(On1c(-c2cccc(F)c2)nc2ccccc2c1=O)c1ccccc1 | < 4.00 | 26 | 50 (≈ 139 µM) |  |  |  |  |  | 
NNC(=O)c1ccncc1 [ISONIAZID] |  |  |  | 0.2 (≈ 1.46 µM) |  |  |  |  | 
Cc1cccc(-c2nc3ccccc3c(=O)n2OC(=O)c2cccc(C(F)(F)F)c2)c1 | < 4.00 | 9.5 | > 50 |  |  |  |  |  | 
O=C(On1c(-c2cccc(F)c2)nc2ccccc2c1=O)c1cccc(Cl)c1 | < 4.00 | 42.5 | > 50 |  |  |  |  |  | 
